Measurements: PubChem BioAssay AID1963967 (Molecular Pharmacology Branch, DTP, NCI, 2024)
pIC50: −log10 of the molar value. Several values for one entry are separate records, joined by “and”; a condition that tells them apart may be missing. Identical values can stand only once.

System: 855422-203-R-J1-PDC spheroids with HUVEC/MSC, viability
Test: Anticancer human tumor 855422-203-R-J1-PDC patient-derived bladder carcinoma cell line growth inhibition [PI3K]
Conditions: for viability, T/C: stronger effect = lower value
Method in brief: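 Targeted small molecules plus PI3K inhibitors, half-log dose series from Cmax (default top 10 microM), were applied to heterotypic spheroids of cancer cells with HUVEC and MSCs. Viability indicated growth inhibition.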

[1] = curve of first compound, second compound 0.00316 µM
[2] = curve of first compound, second compound 0.01 µM
[3] = curve of first compound, second compound 0.0316 µM
[4] = curve of first compound, second compound 0.1 µM
[5] = curve of first compound, second compound 0.316 µM
[6] = curve of first compound, second compound 1 µM
[7] = second compound 0.00316 µM, first compound 0.0316 µM
[8] = second compound 0.00316 µM, first compound 0.1 µM
[9] = second compound 0.00316 µM, first compound 0.316 µM
[10] = second compound 0.00316 µM, first compound 1 µM
[11] = second compound 0.01 µM, first compound 0.0316 µM
[12] = second compound 0.01 µM, first compound 0.1 µM
[13] = second compound 0.01 µM, first compound 0.316 µM
[14] = second compound 0.01 µM, first compound 1 µM
[15] = second compound 0.0316 µM, first compound 0.0316 µM
[16] = second compound 0.0316 µM, first compound 0.1 µM
[17] = second compound 0.0316 µM, first compound 0.316 µM
[18] = second compound 0.0316 µM, first compound 1 µM
[19] = second compound 0.0316 µM, first compound 3.16 µM
[20] = second compound 0.0316 µM, first compound 10 µM
[21] = second compound 0.1 µM, first compound 0.0316 µM
[22] = second compound 0.1 µM, first compound 0.1 µM
[23] = second compound 0.1 µM, first compound 0.316 µM
[24] = second compound 0.1 µM, first compound 1 µM
[25] = second compound 0.1 µM, first compound 3.16 µM
[26] = second compound 0.1 µM, first compound 10 µM
[27] = second compound 0.316 µM, first compound 0.0316 µM
[28] = second compound 0.316 µM, first compound 0.1 µM
[29] = second compound 0.316 µM, first compound 0.316 µM
[30] = second compound 0.316 µM, first compound 1 µM
[31] = second compound 0.316 µM, first compound 3.16 µM
[32] = second compound 0.316 µM, first compound 10 µM
[33] = second compound 1 µM, first compound 0.0316 µM
[34] = second compound 1 µM, first compound 0.1 µM
[35] = second compound 1 µM, first compound 0.316 µM
[36] = second compound 1 µM, first compound 1 µM
[37] = second compound 1 µM, first compound 3.16 µM
[38] = second compound 1 µM, first compound 10 µM
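Further: agents incubated with spheroids for one week before read-out.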
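Wherever viability, T/C is given: 100% = DMSO vehicle-treated control wells.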

Cn1cnc2c(F)c(Nc3ccc(Br)cc3Cl)c(C(=O)NOCCO)cc21
viability, T/C (compound 0.00949 µM): 100% [middle of 4 runs]
viability, T/C (compound 0.03 µM): 94.8% [middle of 4 runs]
viability, T/C (compound 0.0949 µM): 101% [middle of 4 runs]
viability, T/C (compound 0.3 µM): 88% [middle of 4 runs]
viability, T/C (compound 0.949 µM): 87.5% [middle of 4 runs]
viability, T/C (compound 3 µM): 47% [middle of 4 runs]
IC50 (curve of compound): 2.81 µM [middle of 4 runs]

C=CC(=O)N1CCN(c2nc(=O)n(-c3c(C)ccnc3C(C)C)c3nc(-c4c(O)cccc4F)c(F)cc23)C(C)C1 (configuration not stated)
viability, T/C (compound 0.0316 µM): 109% [middle of 4 runs]
viability, T/C (compound 0.1 µM): 95.2% [middle of 4 runs]
viability, T/C (compound 0.316 µM): 117% [middle of 4 runs]
viability, T/C (compound 1 µM): 108% [middle of 4 runs]
viability, T/C (compound 3.16 µM): 122% [middle of 4 runs]
viability, T/C (compound 10 µM): 121% [middle of 4 runs]
pIC50 (curve of compound): < 5.00

C#Cc1c(F)ccc2cc(O)cc(-c3ncc4c(N5CC6CCC(C5)N6)nc(OCC56CCCN5CC(F)C6)nc4c3F)c12 (configuration not stated)
viability, T/C (compound 0.0316 µM): 110% [middle of 4 runs]
viability, T/C (compound 0.1 µM): 101% (2×) and 94.4% and 83.5%
viability, T/C (compound 0.316 µM): 109% [middle of 4 runs]
viability, T/C (compound 1 µM): 103% [middle of 4 runs]
viability, T/C (compound 3.16 µM): 109% [middle of 4 runs]
viability, T/C (compound 10 µM): 114% (2×) and 107% and 112%
pIC50 (curve of compound): < 5.00

C=CC(=O)N1CCN(c2nc(=O)n(-c3c(C)ccnc3C(C)C)c3nc(-c4c(O)cccc4F)c(F)cc23)C(C)C1 (configuration not stated) + COc1c(OCCCN2CCOCC2)ccc2c3n(c(=NC(=O)c4cnc(N)nc4)nc12)CCN3
pIC50 [1]: < 5.00
pIC50 [2]: < 5.00
pIC50 [3]: < 5.00
pIC50 [4]: > 7.50
pIC50 [5]: > 7.50
pIC50 [6]: > 7.50
viability, T/C [7]: 94%
viability, T/C [8]: 90.8%
viability, T/C [9]: 116%
viability, T/C [10]: 98.8%
viability, T/C (second compound 0.00316 µM, first compound 3.16 µM): 101%
viability, T/C (second compound 0.00316 µM, first compound 10 µM): 97%
viability, T/C [11]: 82%
viability, T/C [12]: 99.4%
viability, T/C [13]: 98%
viability, T/C [14]: 89.9%
viability, T/C (second compound 0.01 µM, first compound 3.16 µM): 93.6%
viability, T/C (second compound 0.01 µM, first compound 10 µM): 103%
viability, T/C [15]: 52%
viability, T/C [16]: 60.2%
viability, T/C [17]: 66%
viability, T/C [18]: 79.2%
viability, T/C [19]: 87.2%
viability, T/C [20]: 92.6%
viability, T/C [21]: 24.5%
viability, T/C [22]: 34.4%
viability, T/C [23]: 33.5%
viability, T/C [24]: 42.1%
viability, T/C [25]: 37.2%
viability, T/C [26]: 34.9%
viability, T/C [27]: 9.32%
viability, T/C [28]: 8.33%
viability, T/C [29]: 10.5%
viability, T/C [30]: 10.1%
viability, T/C [31]: 11.6%
viability, T/C [32]: 7.98%
viability, T/C [33]: 3.32%
viability, T/C [34]: 4.63%
viability, T/C [35]: 3.78%
viability, T/C [36]: 3.95%
viability, T/C [37]: 3.61%
viability, T/C [38]: 1.93%

C=CC(=O)N1CCN(c2nc(=O)n(-c3c(C)ccnc3C(C)C)c3nc(-c4c(O)cccc4F)c(F)cc23)C(C)C1 (configuration not stated) + Cc1nc(NC(=O)N2CCCC2C(N)=O)sc1-c1ccnc(C(C)(C)C(F)(F)F)c1
pIC50 [3]: < 5.00
pIC50 [4]: < 5.00
pIC50 [5]: < 5.00
pIC50 [6]: < 5.00
pIC50 (curve of first compound, second compound 3.16 µM): > 7.50
pIC50 (curve of first compound, second compound 10 µM): > 7.50
viability, T/C [15]: 111%
viability, T/C [16]: 87.8%
viability, T/C [17]: 119%
viability, T/C [18]: 104%
viability, T/C [19]: 109%
viability, T/C [20]: 128%
viability, T/C [21]: 108%
viability, T/C [22]: 86.8%
viability, T/C [23]: 106%
viability, T/C [24]: 103%
viability, T/C [25]: 117%
viability, T/C [26]: 114%
viability, T/C [27]: 94.7%
viability, T/C [28]: 87.3%
viability, T/C [29]: 104%
viability, T/C [30]: 99.5%
viability, T/C [31]: 117%
viability, T/C [32]: 109%
viability, T/C [33]: 75.9%
viability, T/C [34]: 76.1%
viability, T/C [35]: 82.6%
viability, T/C [36]: 92.5%
viability, T/C [37]: 101%
viability, T/C [38]: 97.4%
viability, T/C (second compound 3.16 µM, first compound 0.0316 µM): 50.6%
viability, T/C (second compound 3.16 µM, first compound 0.1 µM): 50.9%
viability, T/C (second compound 3.16 µM, first compound 0.316 µM): 58.5%
viability, T/C (second compound 3.16 µM, first compound 1 µM): 64%
viability, T/C (second compound 3.16 µM, first compound 3.16 µM): 80.4%
viability, T/C (second compound 3.16 µM, first compound 10 µM): 67.9%
viability, T/C (second compound 10 µM, first compound 0.0316 µM): 26.9%
viability, T/C (second compound 10 µM, first compound 0.1 µM): 27.1%
viability, T/C (second compound 10 µM, first compound 0.316 µM): 31.5%
viability, T/C (second compound 10 µM, first compound 1 µM): 37.2%
viability, T/C (second compound 10 µM, first compound 3.16 µM): 41.2%
viability, T/C (second compound 10 µM, first compound 10 µM): 34.2%

CCN1CCN(Cc2ccc(Nc3ncc(F)c(-c4cc(F)c5nc(C)n(C(C)C)c5c4)n3)nc2)CC1 + COc1c(OCCCN2CCOCC2)ccc2c3n(c(=NC(=O)c4cnc(N)nc4)nc12)CCN3
pIC50 [1]: < 6.00
pIC50 [2]: 6.39
pIC50 [3]: 7.26
pIC50 [4]: > 8.50
pIC50 [5]: > 8.50
pIC50 [6]: > 8.50
viability, T/C (second compound 0.00316 µM, first compound 0.00316 µM): 95.2%
viability, T/C (second compound 0.00316 µM, first compound 0.01 µM): 77.9%
viability, T/C [7]: 103%
viability, T/C [8]: 82.6%
viability, T/C [9]: 77.6%
viability, T/C [10]: 60.5%
viability, T/C (second compound 0.01 µM, first compound 0.00316 µM): 87.8%
viability, T/C (second compound 0.01 µM, first compound 0.01 µM): 89.9%
viability, T/C [11]: 85.2%
viability, T/C [12]: 71.1%
viability, T/C [13]: 52.9%
viability, T/C [14]: 41.6%
viability, T/C (second compound 0.0316 µM, first compound 0.00316 µM): 64.8%
viability, T/C (second compound 0.0316 µM, first compound 0.01 µM): 67.6%
viability, T/C [15]: 52.7%
viability, T/C [16]: 45.7%
viability, T/C [17]: 26.7%
viability, T/C [18]: 20.6%
viability, T/C (second compound 0.1 µM, first compound 0.00316 µM): 28.9%
viability, T/C (second compound 0.1 µM, first compound 0.01 µM): 29.3%
viability, T/C [21]: 22.7%
viability, T/C [22]: 15.6%
viability, T/C [23]: 12.2%
viability, T/C [24]: 13.9%
viability, T/C (second compound 0.316 µM, first compound 0.00316 µM): 11.5%
viability, T/C (second compound 0.316 µM, first compound 0.01 µM): 9.97%
viability, T/C [27]: 8.87%
viability, T/C [28]: 7.84%
viability, T/C [29]: 8.06%
viability, T/C [30]: 8.7%
viability, T/C (second compound 1 µM, first compound 0.00316 µM): 4.05%
viability, T/C (second compound 1 µM, first compound 0.01 µM): 5.98%
viability, T/C [33]: 4.02%
viability, T/C [34]: 4.36%
viability, T/C [35]: 4.5%
viability, T/C [36]: 5.49%
